Results as given in patent US11396531B2, “Antimicrobial peptides comprising epsilon lysine residues” (priority 2016, dated 2022).
≈ marks a conversion by molar mass, not a printed value. No end group written: not given here.

Columns and labels:
[1] = test system: F. solani and F. oxysporum; assay: Minimum inhibitory concentration (MIC) determination, Fusarium strains; type: cell-based; conditions: F. solani and F. oxysporum (n = 6)
Description: MIC of cationic polymers and polypeptide were tested in accordance with the Clinical and Laboratory Standards Institute (CLSI) guidelines against a panel of antibiotic-susceptible/-resistant bacteria, yeasts and fungal strains. Bacterial and yeast strains were cultured on tryptic soy agar (TSA) and Sabaroud dextrose agar (SDA) plates (Neogen Corporation, MI, USA) overnight respectively. Inocula in Mueller-Hinton broth (MHB) for bacteria and SD broth for C. albicans (Beckton Dickinson, MD, USA) were prepared at 0.5 McFarland. The suspensions were then diluted to a final concentration of 10^5 CFU/ml in a 96-well microtitre plate (SPL Life Sciences Co., Ltd, Korea). Polymers and polypeptides were added to the inoculum in 2-fold serial dilutions to give a range of concentrations from 2-1024 μg/ml. […] The antimicrobial activities were compared with topical antiseptic agents, BAK and CHX. […] MIC of the polymers and polypeptides against Fusarium strains was determined in full strength RPMI-1640 buffer. […] The absorbance value was measured at 600 nm as before and the lowest concentration of the peptide which inhibited 90% growth was reported. […]
(§1) MICs of polymers/antibiotics were determined using the microdilution method in 96 well microtitre plates (SPL Life Sciences Co., Ltd, Korea), following the guidelines of Clinical and Laboratory Standards Institute (CLSI) document M100-S18. […]

P. aeruginosa = type: cell-based, Pseudomonas aeruginosa; conditions: P. aeruginosa (n = 22)
Description: (§2) MIC of cationic polymers and polypeptide were tested in accordance with the Clinical and Laboratory Standards Institute (CLSI) guidelines against a panel of antibiotic-susceptible/-resistant bacteria, yeasts and fungal strains. Bacterial and yeast strains were cultured on tryptic soy agar (TSA) and Sabaroud dextrose agar (SDA) plates (Neogen Corporation, MI, USA) overnight respectively. Inocula in Mueller-Hinton broth (MHB) for bacteria and SD broth for C. albicans (Beckton Dickinson, MD, USA) were prepared at 0.5 McFarland. The suspensions were then diluted to a final concentration of 10^5 CFU/ml in a 96-well microtitre plate (SPL Life Sciences Co., Ltd, Korea). Polymers and polypeptides were added to the inoculum in 2-fold serial dilutions to give a range of concentrations from 2-1024 μg/ml. […] The antimicrobial activities were compared with topical antiseptic agents, BAK and CHX. A similar protocol was used to determine the MIC of εPL against antibiotic-resistant pathogens. MIC of the polymers and polypeptides against Fusarium strains was determined in full strength RPMI-1640 buffer. Fungal spores were recovered from a 5-day old culture on a potato dextrose agar and diluted to a concentration of 10^5 spores/ml in 0.9% saline solution. A further 50-fold dilution was done in RPMI-1640 buffer and 100 μl of the inoculum was added to 96 well plates containing an equal volume of test peptides at 2-fold serial dilutions. 200 μl of inoculum without any additives and buffer alone served as positive and negative controls, respectively. The plate was then incubated at 30° C. for 48 h. The absorbance value was measured at 600 nm as before and the lowest concentration of the peptide which inhibited 90% growth was reported. All MIC determinations were performed in duplicates.
as §1

S. aureus = assay: microbe, parasite or virus in culture; type: cell-based, Staphylococcus aureus; conditions: S. aureus (n = 6)
Description: as §2
(§3) MICs of polymers/antibiotics were determined using the microdilution method in 96 well microtitre plates (SPL Life Sciences Co., Ltd, Korea), following the guidelines of Clinical and Laboratory Standards Institute (CLSI) document M100-S18. Briefly, polymers (1-512 μg/ml) or antibiotics were dissolved in appropriate media (Mueller Hinton broth, MHB for bacteria; Sabaroud's Dextrose (SD) broth for yeasts and RPMI buffer for Fusarium strains) and 100 μl of this was then mixed with an equal volume of microbial inoculum (OD600=˜0.08) in the same media and shaken in a closed incubator.

K. pneumoniae = assay: microbe, parasite or virus in culture; type: cell-based, Klebsiella pneumoniae; conditions: K. pneumonia (n = 4)
Description: as §2, §3

E. coli = assay: microbe, parasite or virus in culture; type: cell-based, Escherichia coli; conditions: E. coli (n = 3)
Description: as §2, §3

A. baumannii = assay: microbe, parasite or virus in culture; conditions: A. baumanii (n = 3)
Description: as §2, with “Korea).” for “Korea). Polymers and polypeptides were added to the inoculum in 2-fold serial dilutions to give a range of concentrations from 2-1024 μg/ml.”
as §3

[2] = test system: Carbapenam-resistant Enterobacter strains (CRE); assay: microbe, parasite or virus in culture; conditions: CRE strains (n = 4)
Description: as §2, with “Korea).” for “Korea). Polymers and polypeptides were added to the inoculum in 2-fold serial dilutions to give a range of concentrations from 2-1024 μg/ml.”
as §3

E. cloacae complex = assay: microbe, parasite or virus in culture; conditions: E. clocae complex (n = 4)
Description: as §2, with “Korea).” for “Korea). Polymers and polypeptides were added to the inoculum in 2-fold serial dilutions to give a range of concentrations from 2-1024 μg/ml.”
as §3

MRSA = type: cell-based, Staphylococcus aureus; conditions: MRSA (n = 9)
Description: as §2, §3

C. albicans = C. albicans (n = 5)
Description: as §2, with “Korea).” for “Korea). Polymers and polypeptides were added to the inoculum in 2-fold serial dilutions to give a range of concentrations from 2-1024 μg/ml.”
as §3

[3] = test system: Vancomycin-resistant Enterococcus (VRE); conditions: VRE (n = 3)
Description: as §2, with “Korea).” for “Korea). Polymers and polypeptides were added to the inoculum in 2-fold serial dilutions to give a range of concentrations from 2-1024 μg/ml.”
as §3

P. aeruginosa ATCC 9027 = assay: Antimicrobial activity of the peptides in trypsin; type: cell-based, Pseudomonas aeruginosa; conditions: trypsin:peptide 1:100, 37° C.
Description: To determine the antimicrobial activity of the peptides in the presence of proteases, 1 mg/ml of HC1 and HC2 were incubated with trypsin enzyme:peptide weight ratio 1:100) for 1 h at 37° C. After this, a 20 μl aliquot of this solution was mixed 180 μl of bacterial inoculum (P. aeruginosa ATCC 9027, 10^5 CFU/ml in MHB) and incubated at room temperature for 6 h. 100 μL aliquots of the suspension was diluted serially (10-fold) in 10 mM PBS solution and pour plated on MH agar plates and incubated at 37° C. for 48 h and colony forming units per ml (CFU/ml) are enumerated.

[4] = test system: T-cell lymphomas (HuT78, MJ, HH) and B-cell lymphomas (Ly-4 and Ly-18); assay: Anticancer properties of hypercharged peptides (MTS); type: cell-based, human; conditions: 62.5-500 μg/ml
Description: The hyper-charged peptides were screened for their anticancer properties using cell lines derived from patients with various forms of cutaneous lymphomas, including T-cell lymphomas (HuT78, MJ, HH) and B-cell lymphomas (Ly-4 and Ly-18). The relative cytotoxicity of these peptides was also assessed in healthy primary peripheral blood lymphocyte (PBL) T-cells. Cytotoxicity was measured as the mitochondrial function by metabolic reduction of MTS.

## C[C@@H]1C/C=C/C=C/C=C/C=C/[C@H](O[C@@H]2O[C@H](C)[C@@H](O)[C@H](N)[C@@H]2O)C[C@@H]2O[C@](O)(C[C@@H](O)C[C@H]3O[C@@H]3/C=C/C(=O)O1)C[C@H](O)[C@H]2C(=O)O [Natamycin]
[1]
  MIC: 8000 to 16000 µg/mL (≈ 12000 to 24000 µM)

## KRKRKRKRKRKR [HC1, KRKRKRKRKRKR]
P. aeruginosa
  MIC: 32 to 128 µg/mL
S. aureus
  MIC: 32 to 64 µg/mL
K. pneumoniae
  MIC: 64 µg/mL
E. coli
  MIC: 16 µg/mL
A. baumannii
  MIC: 64 to 128 µg/mL
[2]
  MIC: 64 to 128 µg/mL
E. cloacae complex
  MIC: 64 to 128 µg/mL
MRSA
  MIC: 16 to 64 µg/mL
C. albicans
  MIC: 64 to 128 µg/mL
[3]
  MIC: 16 to 32 µg/mL
P. aeruginosa ATCC 9027
  decrease in the bacterial viability after incubation with trypsin for 1 hour: complete loss of activity
[4]
  cell killing in lymphoma cell lines: varying degrees of cell killing

## N=C(N)NCCC[C@H](NC(=O)[C@H](N)CCCCNC(=O)[C@H](CCCNC(=N)N)NC(=O)[C@H](N)CCCCNC(=O)[C@H](CCCNC(=N)N)NC(=O)[C@H](N)CCCCNC(=O)[C@H](CCCNC(=N)N)NC(=O)[C@H](N)CCCCNC(=O)[C@H](CCCNC(=N)N)NC(=O)[C@H](N)CCCCNC(=O)[C@H](CCCNC(=N)N)NC(=O)[C@H](N)CCCCN)C(=O)O [HC6, kRkRkRkRkRkR]
P. aeruginosa
  MIC: 32 to 64 µg/mL
S. aureus
  MIC: 32 to 64 µg/mL
K. pneumoniae
  MIC: 32 to 128 µg/mL
E. coli
  MIC: 16 µg/mL (≈ 9.28 µM)
A. baumannii
  MIC: 16 to 64 µg/mL
[2]
  MIC: 64 to 128 µg/mL
E. cloacae complex
  MIC: 64 to 128 µg/mL
MRSA
  MIC: 16 to 32 µg/mL
C. albicans
  MIC: 16 to 32 µg/mL
[3]
  MIC: 16 µg/mL (≈ 9.28 µM)
[4]
  cell killing in lymphoma cell lines: varying degrees of cell killing
